For 56 molecules, IC50 and Efficacy results are on record in ChEMBL document CHEMBL4308865, “Discovery of 4-alkoxy-6-methylpicolinamide negative allosteric modulators of metabotropic glutamate receptor subtype 5” (Bioorg Med Chem Lett, 2019).

The target of test [1] is T1, Metabotropic glutamate receptor 5 (Homo sapiens, UniProt P41594). The test can be described thus: Negative allosteric modulation of human mGlu5 receptor assessed as inhibition of glutamate induced-calcium mobilization. The format is functional.
Target sequence in this assay (P41594 whole entry): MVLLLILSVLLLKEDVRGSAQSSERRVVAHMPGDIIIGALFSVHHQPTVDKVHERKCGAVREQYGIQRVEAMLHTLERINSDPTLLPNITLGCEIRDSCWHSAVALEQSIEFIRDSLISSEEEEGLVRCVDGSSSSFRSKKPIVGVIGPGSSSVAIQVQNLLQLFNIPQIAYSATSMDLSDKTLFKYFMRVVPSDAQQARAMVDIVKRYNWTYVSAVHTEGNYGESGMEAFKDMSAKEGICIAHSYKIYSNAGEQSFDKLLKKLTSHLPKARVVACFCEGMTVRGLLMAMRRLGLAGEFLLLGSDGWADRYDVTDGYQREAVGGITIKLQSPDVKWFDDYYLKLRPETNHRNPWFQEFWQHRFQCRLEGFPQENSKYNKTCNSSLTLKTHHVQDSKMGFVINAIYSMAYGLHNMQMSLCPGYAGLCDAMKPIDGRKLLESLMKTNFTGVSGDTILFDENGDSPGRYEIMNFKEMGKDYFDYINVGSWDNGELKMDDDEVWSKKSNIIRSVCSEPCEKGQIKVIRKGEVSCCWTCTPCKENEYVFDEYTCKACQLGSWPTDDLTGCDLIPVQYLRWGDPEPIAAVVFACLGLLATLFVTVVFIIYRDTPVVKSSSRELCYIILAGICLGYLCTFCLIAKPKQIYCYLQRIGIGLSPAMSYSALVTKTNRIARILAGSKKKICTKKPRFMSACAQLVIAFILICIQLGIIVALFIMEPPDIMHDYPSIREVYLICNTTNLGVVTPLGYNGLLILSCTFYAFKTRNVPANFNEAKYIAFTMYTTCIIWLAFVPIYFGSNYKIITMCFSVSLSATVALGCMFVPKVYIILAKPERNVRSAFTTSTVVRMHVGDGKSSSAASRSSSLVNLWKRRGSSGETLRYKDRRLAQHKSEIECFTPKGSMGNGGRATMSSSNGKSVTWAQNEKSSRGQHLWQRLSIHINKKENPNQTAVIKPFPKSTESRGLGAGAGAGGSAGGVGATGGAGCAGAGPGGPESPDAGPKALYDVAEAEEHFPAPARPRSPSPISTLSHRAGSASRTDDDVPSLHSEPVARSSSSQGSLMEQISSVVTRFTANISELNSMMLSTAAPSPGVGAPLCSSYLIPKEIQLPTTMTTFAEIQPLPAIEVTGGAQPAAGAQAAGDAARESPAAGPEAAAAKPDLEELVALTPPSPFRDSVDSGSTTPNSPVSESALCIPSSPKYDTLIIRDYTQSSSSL
The target in test [2] is T1, Metabotropic glutamate receptor 5. In words: Negative allosteric modulation of human mGlu5 receptor assessed as inhibition of glutamate induced-calcium mobilization relative to glutamate. The format is functional.
Target sequence in this assay (P41594 21-1212 limits assumed): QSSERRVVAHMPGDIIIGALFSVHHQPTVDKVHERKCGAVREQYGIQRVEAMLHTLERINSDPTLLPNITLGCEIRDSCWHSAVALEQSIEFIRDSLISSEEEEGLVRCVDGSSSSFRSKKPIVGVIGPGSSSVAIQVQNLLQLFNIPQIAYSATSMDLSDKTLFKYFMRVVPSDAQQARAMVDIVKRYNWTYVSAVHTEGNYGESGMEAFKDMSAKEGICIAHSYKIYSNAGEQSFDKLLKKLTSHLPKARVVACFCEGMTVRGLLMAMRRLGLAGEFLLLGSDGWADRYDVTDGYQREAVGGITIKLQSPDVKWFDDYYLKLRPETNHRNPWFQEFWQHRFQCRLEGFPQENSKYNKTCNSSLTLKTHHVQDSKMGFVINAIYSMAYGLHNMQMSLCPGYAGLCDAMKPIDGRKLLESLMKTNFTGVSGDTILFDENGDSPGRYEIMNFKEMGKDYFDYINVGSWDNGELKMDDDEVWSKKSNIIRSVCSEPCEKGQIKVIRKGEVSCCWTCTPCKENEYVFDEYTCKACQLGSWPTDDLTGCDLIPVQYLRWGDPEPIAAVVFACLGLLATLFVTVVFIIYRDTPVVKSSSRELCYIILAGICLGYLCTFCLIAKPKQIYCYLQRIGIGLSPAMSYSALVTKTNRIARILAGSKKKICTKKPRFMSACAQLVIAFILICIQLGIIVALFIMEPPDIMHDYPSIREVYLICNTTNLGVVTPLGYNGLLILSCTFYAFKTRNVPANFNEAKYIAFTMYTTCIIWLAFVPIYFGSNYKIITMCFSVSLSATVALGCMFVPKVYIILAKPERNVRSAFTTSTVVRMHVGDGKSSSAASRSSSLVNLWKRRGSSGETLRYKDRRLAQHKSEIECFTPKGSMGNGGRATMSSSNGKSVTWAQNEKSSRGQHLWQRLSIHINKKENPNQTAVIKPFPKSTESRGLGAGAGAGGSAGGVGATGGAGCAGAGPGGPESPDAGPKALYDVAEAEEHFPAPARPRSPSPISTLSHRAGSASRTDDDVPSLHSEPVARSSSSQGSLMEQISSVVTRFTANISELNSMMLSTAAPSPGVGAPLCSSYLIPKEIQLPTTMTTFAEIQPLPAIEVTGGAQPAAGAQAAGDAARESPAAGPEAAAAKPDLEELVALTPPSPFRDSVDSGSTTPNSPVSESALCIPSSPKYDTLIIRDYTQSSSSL

A word on the IC50: it is the concentration that gives 50% inhibition. Regarding `Cc1cc(OCC2CCOC2)cc(C(=O)Nc2ccccn2)n1` (stereo not drawn), the IC50 in test [1] was found to be 210 nM. Besides, the Efficacy in test [2] stood at 1.1%.
On to `COC[C@@H](C)Oc1cc(C)nc(C(=O)Nc2nc(C)cs2)c1`, for which the IC50 in test [1] stood at 1030 nM.
In the case of `Cc1cc(O[C@H]2CO[C@H](C)C2)cc(C(=O)Nc2ccc(F)cn2)n1`, in test [1], the IC50 is 175 nM. Also, in test [2], the Efficacy was found to be 1.3%.
For `Cc1cc(OCC2COC2)cc(C(=O)Nc2nc(C)cs2)n1`, the IC50 in test [1] amounted to 134 nM. Besides, in test [2], the Efficacy was determined as 1.5%.
`Cc1cc(OC2CN(S(C)(=O)=O)C2)cc(C(=O)Nc2nc(C)cs2)n1`: the IC50 in test [1] was found to be 504 nM.
As to `Cc1cc(OC2CCCCC2)cc(C(=O)Nc2ccccn2)n1`, the IC50 in test [1] is 1420 nM. Moreover, the Efficacy in test [2] came out at 2.1%.
The like results for `Cc1cc(OC2CCCCC2)cc(C(=O)Nc2nc(C)cs2)n1` were, in that order, 2100 nM and 1.9%.
In the case of `COCOc1cc(C)nc(C(=O)Nc2nc(C)cs2)c1`, the IC50 in test [1] turned out to be 103 nM. The Efficacy in test [2] is 1.9%.
The like results for `Cc1cc(OC2CCCOC2)cc(C(=O)Nc2ccc(F)cn2)n1` (stereo not drawn) were, in that order, 497 nM and 0.2%.
In the case of `Cc1cc(OC2CCSC2)cc(C(=O)Nc2nc(C)cs2)n1` (stereo not drawn), the IC50 in test [1] is 77 nM.
Regarding `Cc1cc(O[C@H]2CO[C@@H](C)C2)cc(C(=O)Nc2ccc(F)cn2)n1`, in test [1], the IC50 stood at 4470 nM. The Efficacy in test [2] came to 1.9%.
In the same order, the values of `Cc1cc(OC2CCCOC2)cc(C(=O)Nc2nc(C)cs2)n1` (stereo not drawn) are 140 nM and 0.9%.
The like results for `Cc1cc(OCC2CCOC2)cc(C(=O)Nc2nc(C)cs2)n1` (stereo not drawn) were, in that order, 200 nM and 1.1%.
In the same order, the values of `Cc1cc(O[C@H]2CO[C@H](C)C2)cc(C(=O)Nc2nc(C(F)(F)F)cs2)n1` are 5200 nM and 2.7%.
`Cc1cc(O[C@@H]2CO[C@H](C)C2)cc(C(=O)Nc2nc(C)cs2)n1`: in test [1], the IC50 amounted to 112 nM. In addition, in test [2], the Efficacy turned out to be 2.1%.
In the same order, the values of `Cc1cc(O[C@@H]2CO[C@@H](C)C2)cc(C(=O)Nc2nc(C)cs2)n1` are 395 nM and 1.7%.
The like results for `Cc1cc(OC2COC2)cc(C(=O)Nc2ccccn2)n1` were, in that order, 66 nM and 1.3%.
The like results for `Cc1cc(OCC2CCCO2)cc(C(=O)Nc2ccccn2)n1` (stereo not drawn) were, in that order, 725 nM and 0.8%.
Regarding `COc1cc(C)nc(C(=O)Nc2ccc(F)cn2)c1`, the IC50 in test [1] amounted to 7200 nM. Moreover, the Efficacy in test [2] is 5.5%.
In the same order, the values of `COCOc1cc(C)nc(C(=O)Nc2ccc(F)cn2)c1` are 694 nM and 0.1%.
In the case of `CO[C@@H](C)COc1cc(C)nc(C(=O)Nc2nc(C)cs2)c1`, the IC50 in test [1] was found to be 1050 nM.
Turning to `Cc1cc(O[C@H]2CO[C@@H](C)C2)cc(C(=O)Nc2nc(C)cs2)n1`, in test [1], the IC50 was found to be 684 nM. For the same molecule, the Efficacy in test [2] is 1.1%.
As for `Cc1cc(O[C@H]2CO[C@H](C)C2)cc(C(=O)Nc2nc(C(F)F)cs2)n1`, the IC50 in test [1] is 902 nM. Moreover, in test [2], the Efficacy came to 1.6%.
The like results for `Cc1cc(O[C@H]2CO[C@H](C)C2)cc(C(=O)Nc2nc(C)c(F)s2)n1` were, in that order, 1290 nM and 3.8%.
Regarding `Cc1cc(OCC2CCCO2)cc(C(=O)Nc2nc(C)cs2)n1` (stereo not drawn), the IC50 in test [1] was found to be 273 nM. For the same molecule, the Efficacy in test [2] was found to be 1.5%.
The like results for `Cc1cc(OC2CCC2)cc(C(=O)Nc2ccc(F)cn2)n1` were, in that order, 182 nM and 1.6%.
The like results for `Cc1cc(O[C@H]2CO[C@H](C)C2)cc(C(=O)Nc2nc(C3CC3)cs2)n1` were, in that order, 899 nM and 1.3%.
As to `Cc1cc(O[C@H]2CCOC2)cc(C(=O)Nc2ccccn2)n1`, the IC50 in test [1] turned out to be 194 nM. Further, the Efficacy in test [2] turned out to be 1.3%.
On to `Cc1cc(OC2CCC2)cc(C(=O)Nc2ccccn2)n1`, for which the IC50 in test [1] is 43 nM. For the same molecule, the Efficacy in test [2] stood at 1.5%.
On to `Cc1cc(OC2CCCCC2)cc(C(=O)Nc2ccc(F)cn2)n1`, for which the IC50 in test [1] worked out at 3350 nM. Besides, in test [2], the Efficacy was determined as 10.4%.
The like results for `Cc1cc(O[C@@H]2CO[C@H](C)C2)cc(C(=O)Nc2ccc(F)cn2)n1` were, in that order, 389 nM and 1.4%.
`Cc1cc(OCC2CCO2)cc(C(=O)Nc2ccc(F)cn2)n1` (stereo not drawn): the IC50 in test [1] came out at 2480 nM. Besides, the Efficacy in test [2] is -1.1%.
In the same order, the values of `Cc1cc(OCC2COC2)cc(C(=O)Nc2ccc(F)cn2)n1` are 4300 nM and -3.4%.
Regarding `COC[C@H](C)Oc1cc(C)nc(C(=O)Nc2nc(C)cs2)c1`, the IC50 in test [1] turned out to be 932 nM.
As for `Cc1cc(OC2CCOCC2)cc(C(=O)Nc2nc(C)cs2)n1`, in test [1], the IC50 is 446 nM. In test [2], the Efficacy is 0.7%.
On to `Cc1cc(O[C@H]2CO[C@H](C)C2)cc(C(=O)Nc2nc(CF)cs2)n1`, for which the IC50 in test [1] is 180 nM. Also, the Efficacy in test [2] came to 1.1%.
As for `Cc1cc(OCC2CCO2)cc(C(=O)Nc2nc(C)cs2)n1` (stereo not drawn), the IC50 in test [1] turned out to be 399 nM. Besides, the Efficacy in test [2] is 1.2%.
With `Cc1cc(OCC2CCO2)cc(C(=O)Nc2ccccn2)n1` (stereo not drawn), in test [1], the IC50 was found to be 646 nM. Moreover, the Efficacy in test [2] came to 0.5%.
The like results for `Cc1cc(OC2CCOCC2)cc(C(=O)Nc2ccc(F)cn2)n1` were, in that order, 1960 nM and -0.2%.
`Cc1cc(O[C@H]2CCOC2)cc(C(=O)Nc2nc(C)cs2)n1`: in test [1], the IC50 came to 107 nM. Also, the Efficacy in test [2] was 1.4%.
Turning to `Cc1cc(OCC2COC2)cc(C(=O)Nc2ccccn2)n1`, the 50% inhibitory concentration (IC50) in test [1] was 392 nM. Further, the Efficacy in test [2] was determined as 0.8%.
As to `Cc1cc(OC2C[S+]([O-])C2)cc(C(=O)Nc2nc(C)cs2)n1` (stereo not drawn), the IC50 in test [1] turned out to be 145 nM.
As to `CC(=O)N1CC(Oc2cc(C)nc(C(=O)Nc3nc(C)cs3)c2)C1`, the IC50 in test [1] was found to be 388 nM.
As to `Cc1cc(O[C@@H]2CO[C@@H](C)C2)cc(C(=O)Nc2ccc(F)cn2)n1`, the IC50 in test [1] was found to be 2040 nM. For the same molecule, the Efficacy in test [2] was 2.6%.
Turning to `Cc1cc(OC2COC2)cc(C(=O)Nc2nc(C)cs2)n1`, in test [1], the concentration for half-maximal inhibition (IC50) was 51 nM. For the same molecule, the Efficacy in test [2] is 0.5%.
In the same order, the values of `Cc1cc(OC2CCCC2)cc(C(=O)Nc2ccc(F)cn2)n1` are 3660 nM and -0.7%.
Regarding `Cc1cc(OCC2CCCO2)cc(C(=O)Nc2ccc(F)cn2)n1` (stereo not drawn), the IC50 in test [1] is 2330 nM. Also, in test [2], the Efficacy was -0.9%.
Take `Cc1cc(OC2CCOCC2)cc(C(=O)Nc2ccccn2)n1`: the IC50 in test [1] is 1560 nM. In addition, the Efficacy in test [2] was determined as 0.9%.
The like results for `Cc1cc(OC2CCC2)cc(C(=O)Nc2nc(C)cs2)n1` were, in that order, 58 nM and 1.5%.
In the same order, the values of `Cc1cc(OC2CCCC2)cc(C(=O)Nc2ccccn2)n1` are 182 nM and 2.1%.
For `Cc1cc(OCC2CCOC2)cc(C(=O)Nc2ccc(F)cn2)n1` (stereo not drawn), the half-maximal inhibitory concentration (IC50) in test [1] was 700 nM. Further, in test [2], the Efficacy was found to be 1%.
Consider `COCOc1cc(C)nc(C(=O)Nc2ccccn2)c1`, for which the IC50 in test [1] amounted to 120 nM. The Efficacy in test [2] worked out at 1.1%.
The like results for `Cc1cc(OC2CCCOC2)cc(C(=O)Nc2ccccn2)n1` (stereo not drawn) were, in that order, 224 nM and 0.7%.
The like results for `Cc1cc(OC2CCCC2)cc(C(=O)Nc2nc(C)cs2)n1` were, in that order, 149 nM and 1.5%.
Consider `Cc1cc(OC2CSC2)cc(C(=O)Nc2nc(C)cs2)n1`, for which the IC50 in test [1] was 31 nM.
Regarding `Cc1cc(OC2CS(=O)(=O)C2)cc(C(=O)Nc2nc(C)cs2)n1`, the IC50 in test [1] was found to be 392 nM.
